For 34 compounds, EC50 results are on record in patent US20150291598A1 (NOVARTIS AG, priority 2012, published 2015).

Like-named read-outs stand apart in the source and are kept apart here.

The subject of the assay is P. falciparum (NF54 or 3D7 strain). Nature of the assay: Assay for P. falciparum proliferation in infected human blood cells (SYBR Green). In kind it is cell-based, Plasmodium falciparum. Conditions: Plasmodium falciparum, Erythrocyte. In a few lines: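 Infected erythrocytes (NF54 or 3D7; final 2.5% hematocrit, 0.3% parasitemia) were incubated with compounds for 72 h at 37 °C in low oxygen (3% O2, 4% CO2, 93% N2).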

Setting [1] is: 72 h, NF54 or 3D7 infected human erythrocytes, 72 hours, read-out: EC50 (nM), inhibitory efficacy in delaying P. falciparum proliferation in infected human blood cells.

On to `CN(C(=O)c1cn2c(-c3ccc(Cl)c(F)c3)cnc2cn1)c1ccc(C#N)cc1` [Compound 71, 3-(4-chloro-3-fluorophenyl)-N-(4-cyanophenyl)-N-methylimidazo[1,2-a]pyrazine-6-carboxamide], for which the EC50 under setting [1] is 1300 nM. As to `CN(C)CCN(C(=O)c1cn2c(-c3ccc(C(F)(F)F)cc3)cnc2cn1)c1ccc(C#N)cc1` [Compound 72, N-(4-cyanophenyl)-N-[2-(dimethylamino)ethyl]-3-[4-(trifluoromethyl)phenyl]imidazo[1,2-a]pyrazine-6-carboxamide], the EC50 under setting [1] was 439 nM and the EC50 (infected human red blood cells, read-out: EC50, P. falciparum Proliferation Assay) was less than 50 nM.

Turning to `CN(C(=O)c1cn2c(-c3ccc(C(F)(F)F)cc3)cnc2cn1)c1ccccc1Cl` [Compound 73, N-(2-chlorophenyl)-N-methyl-3-[4-(trifluoromethyl)phenyl]imidazo[1,2-a]pyrazine-6-carboxamide], the EC50 under setting [1] came to 624 nM. Still for that read-out and setting: as for `CN(C(=O)c1cn2c(-c3ccc(-c4nnc(N)s4)cc3)cnc2cn1)c1ccc(C#N)cc1` [Compound 74, 3-[4-(5-amino-1,3,4-thiadiazol-2-yl)phenyl]-N-(4-cyanophenyl)-N-methylimidazo[1,2-a]pyrazine-6-carboxamide], the figure is 24 nM. Regarding `CN(C(=O)c1cn2c(-c3ccc(C(C)(F)F)cc3)cnc2cn1)c1ccc(C#N)cc1` [Compound 75, N-(4-cyanophenyl)-3-[4-(1,1-difluoroethyl)phenyl]-N-methylimidazo[1,2-a]pyrazine-6-carboxamide], the EC50 under setting [1] came to 37 nM. With `CN(C)c1ccc(-c2cnc3cnc(C(=O)N(C)c4ccc(C#N)cc4)cn23)cc1` [Compound 77, N-(4-cyanophenyl)-3-[4-(dimethylamino)phenyl]-N-methylimidazo[1,2-a]pyrazine-6-carboxamide], the EC50 under setting [1] stood at 116 nM. Still for that read-out and setting: as for `CN(C(=O)c1cn2c(-c3ccc(C(F)(F)F)cc3)cnc2cn1)c1ccc(Cl)nc1` [Compound 78, N-(6-chloropyridin-3-yl)-N-methyl-3-[4-(trifluoromethyl)phenyl]imidazo[1,2-a]pyrazine-6-carboxamide], the figure is 181 nM; as for `CN(C(=O)c1cn2c(-c3ccc(C(F)(F)F)cc3)cnc2cn1)c1ccc(F)nc1` [Compound 79, N-(6-fluoropyridin-3-yl)-N-methyl-3-[4-(trifluoromethyl)phenyl]imidazo[1,2-a]pyrazine-6-carboxamide], 214 nM. On to `Cc1ccc(-c2cnc3cnc(C(=O)N(C)c4ccc(Cl)nc4)cn23)cc1` [Compound 80, -(6-chloropyridin-3-yl)-N-methyl-3-(4-methylphenyl)imidazo[1,2-a]pyrazine-6-carboxamide], for which the EC50 under setting [1] amounted to 258 nM. Same read-out and setting: as for `CN(C(=O)c1cn2c(-c3ccc(Cl)cc3)cnc2cn1)c1ccc(Cl)nc1` [Compound 81, -(4-chlorophenyl)-N-(6-chloropyridin-3-yl)-N-methylimidazo[1,2-a]pyrazine-6-carboxamide], the figure is 382 nM; as for `CN(C(=O)c1cn2c(-c3ccc(N4CCCC4)nc3)cnc2cn1)c1ccc(C#N)cc1` [Compound 82, N-(4-cyanophenyl)-N-methyl-3-[6-(pyrrolidin-1-yl)pyridin-3-yl]imidazo[1,2-a]pyrazine-6-carboxamide], 2340 nM. Still for that read-out and setting: as for `CN(C(=O)c1cn2c(-c3ccc4c(cnn4C)c3)cnc2cn1)c1ccc(C#N)cn1` [Compound 83, N-(5-cyanopyridin-2-yl)-N-methyl-3-(1-methyl-1H-indazol-5-yl)imidazo[1,2-a]pyrazine-6-carboxamide], the figure is 1570 nM. Take `CN(C(=O)c1cn2c(-c3ccc4c(ccn4C)c3)cnc2cn1)c1ccc(Cl)nc1` [Compound 84, N-(6-chloropyridin-3-yl)-N-methyl-3-(1-methyl-1H-indol-5-yl)imidazo[1,2-a]pyrazine-6-carboxamide]: the EC50 under setting [1] amounted to 1280 nM. With `CN(C(=O)c1cn2c(-c3ccc(OC(F)F)cc3)cnc2cn1)c1ccc(C#N)cn1` [Compound 85, N-(5-cyanopyridin-2-yl)-3-[4-(difluoromethoxy)phenyl]-N-methylimidazo[1,2-a]pyrazine-6-carboxamide], the EC50 under setting [1] came out at 1100 nM. On to `CN(C(=O)c1cn2c(-c3ccc(C(F)(F)F)cc3)cnc2cn1)c1cccc(F)n1` [Compound 86, N-(6-fluoropyridin-2-yl)-N-methyl-3-[4-(trifluoromethyl)phenyl]imidazo[1,2-a]pyrazine-6-carboxamide], for which the EC50 under setting [1] amounted to 2010 nM. Still for that read-out and setting: as for `CN(C(=O)c1cn2c(-c3ccc(-n4cccn4)cc3)cnc2cn1)c1ccc(C#N)cc1` [Compound 87, N-(4-cyanophenyl)-N-methyl-3-[4-(1H-pyrazol-1-yl)phenyl]imidazo[1,2-a]pyrazine-6-carboxamide], the figure is 104 nM; as for `COc1ccc(N(C)C(=O)c2cn3c(-c4ccc(C(F)(F)F)cc4)cnc3cn2)cn1` [Compound 88, N-(6-methoxypyridin-3-yl)-N-methyl-3-[4-(trifluoromethyl)phenyl]imidazo[1,2-a]pyrazine-6-carboxamide], 1740 nM; as for `CN(C(=O)c1cn2c(-c3ccc(C(F)(F)F)cc3)cnc2cn1)c1ccc(C#N)cn1` [Compound 89, N-(5-cyanopyridin-2-yl)-N-methyl-3-[4-(trifluoromethyl)phenyl]imidazo[1,2-a]pyrazine-6-carboxamide], 2070 nM.

With `COc1ccc(-c2cnc3cnc(C(=O)N(C)c4ccc(C#N)cc4)cn23)cn1` [Compound 90, N-(4-cyanophenyl)-3-(6-methoxypyridin-3-yl)-N-methylimidazo[1,2-a]pyrazine-6-carboxamide], under setting [1], the EC50 was found to be 826 nM. In the case of `CN(C(=O)c1cn2c(-c3ccc(C(F)(F)F)cc3)cnc2cn1)c1cnc(Cl)cn1` [Compound 91, -(5-chloropyrazin-2-yl)-N-methyl-3-[4-(trifluoromethyl)phenyl]imidazo[1,2-a]pyrazine-6-carboxamide], the EC50 under setting [1] worked out at 4300 nM. Take `CC(C)N(C(=O)c1cn2c(-c3ccc(C(F)(F)F)cc3)cnc2cn1)c1ccc(C#N)cc1` [Compound 92, N-(4-cyanophenyl)-N-(propan-2-yl)-3-[4-(trifluoromethyl)phenyl]imidazo[1,2-a]pyrazine-6-carboxamide]: the EC50 under setting [1] stood at 349 nM. On the same count and under the same terms, as for `CN(C(=O)c1cn2c(-c3ccc(C(F)(F)F)cc3)cnc2cn1)c1ncc(Cl)cn1` [Compound 93, N-(5-chloropyrimidin-2-yl)-N-methyl-3-[4-(trifluoromethyl)phenyl]imidazo[1,2-a]pyrazine-6-carboxamide], the figure is 4640 nM. The same measure, in the same setting: as for `CN(C(=O)c1cn2c(-c3ccc(C(F)(F)F)cc3)cnc2cn1)c1ccc(Cl)nn1` [Compound 94, N-(6-chloropyridazin-3-yl)-N-methyl-3-[4-(trifluoromethyl)phenyl]imidazo[1,2-a]pyrazine-6-carboxamide], the figure is more than 10000 nM; as for `CN(C(=O)c1cn2c(-c3ccc(C(F)F)cc3)cnc2cn1)c1ccc(C#N)cn1` [Compound 95, N-(5-cyanopyridin-2-yl)-3-[4-(difluoromethyl)phenyl]-N-methylimidazo[1,2-a]pyrazine-6-carboxamide], 1050 nM; as for `CN(C(=O)c1cn2c(-c3ccc(C(F)(F)F)cc3)cnc2cn1)c1ccc(Br)nn1` [Compound 96, N-(6-bromopyridazin-3-yl)-N-methyl-3-[4-(trifluoromethyl)phenyl]imidazo[1,2-a]pyrazine-6-carboxamide], 9990 nM. The same measure, in the same setting: as for `CN(C(=O)c1cn2c(-c3ccc(C(F)(F)F)cc3)cnc2cn1)c1cnc(Br)cn1` [Compound 97, N-(5-bromopyrazin-2-yl)-N-methyl-3-[4-(trifluoromethyl)phenyl]imidazo[1,2-a]pyrazine-6-carboxamide], the figure is 4510 nM.

For `CN(C(=O)c1cn2c(-c3ccc(C(N)=O)cc3)cnc2cn1)c1ccc(C#N)cn1` [Compound 98, 3-(4-carbamoylphenyl)-N-(5-cyanopyridin-2-yl)-N-methylimidazo[1,2-a]pyrazine-6-carboxamide], the EC50 under setting [1] is 1500 nM. The same measure, in the same setting: as for `CN(C(=O)c1cn2c(-c3ccc(C(F)(F)F)cc3)cnc2cn1)c1ccccn1` [Compound 99, N-methyl-N-(pyridin-2-yl)-3-[4-(trifluoromethyl)phenyl]imidazo[1,2-a]pyrazine-6-carboxamide], the figure is 3880 nM; as for `COc1ccc(-c2cnc3cnc(C(=O)N(C)c4ccc(Cl)nc4)cn23)cc1` [Compound 100, N-(6-chloropyridin-3-yl)-3-(4-methoxyphenyl)-N-methylimidazo[1,2-a]pyrazine-6-carboxamide], 297 nM. The same measure, in the same setting: as for `CN(C(=O)c1cn2c(-c3ccc(C(F)(F)F)cc3)cnc2cn1)c1ccc(F)cc1` [Compound 101, N-(4-fluorophenyl)-N-methyl-3-[4-(trifluoromethyl)phenyl]imidazo[1,2-a]pyrazine-6-carboxamide], the figure is 33 nM; as for `CN(C(=O)c1cn2c(-c3ccc(OC(F)F)cc3)cnc2cn1)c1ccc(Cl)cc1` [Compound 102, N-(4-chlorophenyl)-3-[4-(difluoromethoxy)phenyl]-N-methylimidazo[1,2-a]pyrazine-6-carboxamide], 53 nM; as for `CN(C(=O)c1cn2c(-c3ccc(Cl)cc3)cnc2cn1)c1ccc(F)cc1` [Compound 103, 3-(4-chlorophenyl)-N-(4-fluorophenyl)-N-methylimidazo[1,2-a]pyrazine-6-carboxamide], 51 nM. On the same count and under the same terms, as for `CN(C(=O)c1cn2c(-c3ccc(C(N)=O)cc3)cnc2cn1)c1ccc(C#N)cc1` [Compound 104, 3-(4-carbamoylphenyl)-N-(4-cyanophenyl)-N-methylimidazo[1,2-a]pyrazine-6-carboxamide], the figure is 57 nM. Take `CN(C(=O)c1cn2c(-c3ccc(C(F)(F)F)cc3)cnc2cn1)c1ccc(F)c(F)c1` [Compound 105, N-(3,4-difluorophenyl)-N-methyl-3-[4-(trifluoromethyl)phenyl]imidazo[1,2-a]pyrazine-6-carboxamide]: the EC50 under setting [1] is 41 nM.
